According to US20230085307A1, “PYRIDAZINONE COMPOUND AND HERBICIDE” (NISSAN CHEMICAL CORPORATION, priority 2019, published 2023):

Tests used:
rice flat sedge = assay: Test Example 3: herbicidal effect by foliage application, Wagner pot (Table 18, symbol E); format: in vivo, rice flat sedge (Cyperus iria)
Method in brief: (§1)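 Plants were sown in alluvial soil held under 0.1–0.5 cm standing water and grown 14 days in a greenhouse at 25–30 °C. An emulsifiable formulation, water-diluted to the set dose, was then sprayed onto the foliage, and effects were scored three weeks later using previously defined criteria.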

barnyard grass [1] = assay: Test Example 3: herbicidal effect by foliage application, Wagner pot (Table 18, symbol H); format: in vivo, barnyard grass (Echinochloa crus-galli)
Method in brief: as §1

Chinese sprangletop = assay: Test Example 3: herbicidal effect by foliage application, Wagner pot (Table 18, symbol D); format: in vivo, chinese sprangletop (Leptochloa chinensis)
Method in brief: as §1

green foxtail [2] = assay: Test Example 5: herbicidal effect by foliage application, plastic box (Table 20, symbol G); format: in vivo, green foxtail (Setaria viridis); details: foliage application
Method in brief: (§2)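 Plants were sown into sterilized diluvial soil under about 1.5 cm cover and kept in a greenhouse at 25° C. to 30° C. Fourteen days on, foliage received an even spray of the diluted emulsion. Herbicidal or crop effect was judged three weeks afterwards.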

windgrass = assay: Test Example 5: herbicidal effect by foliage application, plastic box (Table 20, symbol L); format: in vivo, windgrass (Apera spica-venti); details: foliage application, 80 g/ha, 3 weeks after application
Method in brief: as §2

Japanese bulrush = assay: Test Example 1: herbicidal activity, application before weed generation under submerged conditions (Table 16, symbol B); format: in vivo, Japanese bulrush (Schoenoplectus juncoides)
Method in brief: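 Emulsion formulation, water-diluted to set dose, was put onto the flooded surface (4 cm depth, alluvial soil) the same day weeds were sown and 2.5-leaf rice transplanted. After 3 weeks at 25-30 °C under glass, each species was rated 0 (≤5% kill) to 5 (≥90% kill).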

barnyard grass [3] = assay: Test Example 5: herbicidal effect by foliage application, plastic box (Table 20, symbol H); format: in vivo, barnyard grass (Echinochloa crus-galli); details: foliage application
Method in brief: as §2

velvetleaf [4] = assay: Test Example 5: herbicidal effect by foliage application, plastic box (Table 20, symbol M); format: in vivo, velvetleaf (Abutilon theophrasti); details: foliage application
Method in brief: as §2

blackgrass = assay: Test Example 5: herbicidal effect by foliage application, plastic box (Table 20, symbol J); format: in vivo, blackgrass (Alopecurus myosuroides); details: foliage application, 80 g/ha, 3 weeks after application
Method in brief: as §2

persian speedwell = assay: Test Example 5: herbicidal effect by foliage application, plastic box (Table 20, symbol R); format: in vivo, Persian speedwell (Veronica persica); details: foliage application, 80 g/ha, 3 weeks after application
Method in brief: as §2

Italian ryegrass = assay: Test Example 5: herbicidal effect by foliage application, plastic box (Table 20, symbol K); format: in vivo, Italian ryegrass (Lolium multiflorum); details: foliage application, 80 g/ha, 3 weeks after application
Method in brief: as §2

lambsquarters [5] = assay: Test Example 5: herbicidal effect by foliage application, plastic box (Table 20, symbol O); format: in vivo, lambsquarters (Chenopodium album); details: foliage application
Method in brief: as §2

oval-leafed pondweed = assay: Test Example 1: herbicidal activity, application before weed generation under submerged conditions (Table 16, symbol C); format: in vivo, oval-leafed pondweed (Monochoria vaginalis)
From the text: (§3) [Test Example 1] Herbicidal Activity Test by Application before Weed Generation under Submerged Conditions After alluvial soil was placed into 1/10000 are of Wagner pot, water was poured and mixed to form a submerged condition having a water depth of 4 cm. Seeds of late watergrass, Japanese bulrush, and oval-leafed pondweed were sowed in a mixed manner in the aforementioned pot, and then 2.5 leaf stage rice plant seedlings were transplanted thereto. On the day of sowing seeds, the emulsion agent of the compound of the present invention prepared according to Formulation Example 2 was diluted with water so as to achieve a predetermined herbicide amount, and the diluted emulsion agent was applied to the surface of the water. The pot was placed in a greenhouse at 25° C. to 30° C. for growth of the plants. Three weeks after the herbicide application, the effect of the herbicide on each plant was evaluated according to the following criteria. Evaluation Criteria 5: Herbicidal rate of 90% or more (almost completely withered) 4: Herbicidal rate of 70% or more and less than 90% 3: Herbicidal rate of 40% or more and less than 70% 2: Herbicidal rate of 20% or more and less than 40% 1: Herbicidal rate of 5% or more and less than 20% 0: Herbicidal rate of 5% or less (almost no effect)

late watergrass = assay: Test Example 1: herbicidal activity, application before weed generation under submerged conditions (Table 16, symbol A); format: in vivo, late watergrass (Echinochloa oryzicola)
From the text: as §3

southern crabgrass [6] = assay: Test Example 5: herbicidal effect by foliage application, plastic box (Table 20, symbol F); format: in vivo, southern crabgrass (Digitaria ciliaris); details: foliage application
Method in brief: as §2

wild oat = assay: Test Example 5: herbicidal effect by foliage application, plastic box (Table 20, symbol I); format: in vivo, wild oat (Avena fatua); details: foliage application, 80 g/ha, 3 weeks after application
Method in brief: as §2

barnyard grass [7] = assay: Test Example 4: herbicidal effect by soil treatment (Table 19, symbol H); format: in vivo, barnyard grass (Echinochloa crus-galli); details: amount of applied herbicide 320 g/ha
Method in brief: (§4)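 Pre-emergence style soil spray: seeds under ~1.5 cm sterilized diluvial soil received a uniform coat of emulsion diluted to the predetermined herbicide amount. Greenhouse 25–30° C; readout at week three on previously defined criteria.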

green foxtail [8] = assay: Test Example 4: herbicidal effect by soil treatment (Table 19, symbol G); format: in vivo, green foxtail (Setaria viridis); details: amount of applied herbicide 320 g/ha
Method in brief: as §4

redroot pigweed [9] = assay: Test Example 5: herbicidal effect by foliage application, plastic box (Table 20, symbol N); format: in vivo, redroot pigweed (Amaranthus retroflexus); details: foliage application, 320 g/ha, three weeks after application
Method in brief: as §2

redroot pigweed [10] = assay: Test Example 4: herbicidal effect by soil treatment (Table 19, symbol N); format: in vivo, redroot pigweed (Amaranthus retroflexus); details: amount of applied herbicide 320 g/ha
Method in brief: as §4

southern crabgrass [11] = assay: Test Example 4: herbicidal effect by soil treatment (Table 19, symbol F); format: in vivo, southern crabgrass (Digitaria ciliaris); details: amount of applied herbicide 320 g/ha
Method in brief: as §4

lambsquarters [12] = assay: Test Example 4: herbicidal effect by soil treatment (Table 19, symbol O); format: in vivo, lambsquarters (Chenopodium album); details: amount of applied herbicide 320 g/ha
Method in brief: as §4

velvetleaf [13] = assay: Test Example 4: herbicidal effect by soil treatment (Table 19, symbol M); format: in vivo, velvetleaf (Abutilon theophrasti); details: amount of applied herbicide 320 g/ha
Method in brief: as §4

[14] = 80 g/ha, 3 weeks after application
[15] = amount of applied herbicide 320 g/ha
[16] = 320 g/ha, three weeks after application

**Q.** How did the “herbicidal effect on E (rice flat sedge), rating 0-5” value (rice flat sedge; 80 g/ha) turn out when CC#CCOc1ccc(-c2sc3ccccc3c2-c2c(O)c(C)nn(C)c2=O)cc1 [1-219] was run?
**A.** The value was 3 (Herbicidal rate of 40% or more and less than 70%).

**Q.** And the “herbicidal effect on H (barnyard grass), rating 0-5” value (barnyard grass [1]; 80 g/ha)?
**A.** The value was 5 (Herbicidal rate of 90% or more (almost completely withered)).

**Q.** What about the “herbicidal effect on D (Chinese sprangletop), rating 0-5” value (Chinese sprangletop; 80 g/ha) of the same molecule?
**A.** Its value is 5 (Herbicidal rate of 90% or more (almost completely withered)).

**Q.** What about the “effect on green foxtail (G)” value (green foxtail [2]; [14]) of the same molecule?
**A.** The value was 5 (Herbicidal rate of 90% or more (almost completely withered)).

**Q.** What about the “effect on windgrass (L)” value (windgrass) of the same molecule?
**A.** The value was 0 (Herbicidal rate of 5% or less (almost no effect)).

**Q.** And the “Herbicidal effect on B: Japanese bulrush (grade 0-5)” value (Japanese bulrush; 80 g/ha applied herbicide)?
**A.** The value was 3 (Herbicidal rate of 40% or more and less than 70%).

**Q.** What about the “effect on barnyard grass (H)” value (barnyard grass [3]; [14]) of the same molecule?
**A.** The value was 4 (Herbicidal rate of 70% or more and less than 90%).

**Q.** And the “effect on velvetleaf (M)” value (velvetleaf [4]; [14])?
**A.** Its value is 4 (Herbicidal rate of 70% or more and less than 90%).

**Q.** And the “effect on blackgrass (J)” value (blackgrass)?
**A.** Its value is 4 (Herbicidal rate of 70% or more and less than 90%).

**Q.** What about the “effect on persian speedwell (R)” value (persian speedwell) of the same molecule?
**A.** Its value is 5 (Herbicidal rate of 90% or more (almost completely withered)).

**Q.** And the “effect on Italian ryegrass (K)” value (Italian ryegrass)?
**A.** The value was 5 (Herbicidal rate of 90% or more (almost completely withered)).

**Q.** What about the “effect on lambsquarters (O)” value (lambsquarters [5]; [14]) of the same molecule?
**A.** The value was 5 (Herbicidal rate of 90% or more (almost completely withered)).

**Q.** And the “Herbicidal effect on C: oval-leafed pondweed (grade 0-5)” value (oval-leafed pondweed; 80 g/ha applied herbicide)?
**A.** Its value is 3 (Herbicidal rate of 40% or more and less than 70%).

**Q.** And the “Herbicidal effect on A: late watergrass (grade 0-5)” value (late watergrass; 80 g/ha applied herbicide)?
**A.** Its value is 5 (Herbicidal rate of 90% or more (almost completely withered)).

**Q.** And the “effect on southern crabgrass (F)” value (southern crabgrass [6]; [14])?
**A.** Its value is 3 (Herbicidal rate of 40% or more and less than 70%).

**Q.** What about the “effect on wild oat (I)” value (wild oat) of the same molecule?
**A.** The value was 1 (Herbicidal rate of 5% or more and less than 20%).

**Q.** With Cc1nn(C)c(=O)c(-c2c(-c3ccc(OCC=C(Cl)Cl)cc3)sc3ccc(F)cc23)c1O [2-442] as the molecule, how does the “herbicidal effect on E: rice flat sedge” value (rice flat sedge; [15]) read?
**A.** Its value is 3 (Herbicidal rate of 40% or more and less than 70%).

**Q.** And the “herbicidal effect on H: barnyard grass” value (barnyard grass [1]; [15])?
**A.** Its value is 5 (Herbicidal rate of 90% or more (almost completely withered)).

**Q.** What about the “herbicidal effect on D: Chinese sprangletop” value (Chinese sprangletop; [15]) of the same molecule?
**A.** Its value is 2 (Herbicidal rate of 20% or more and less than 40%).

**Q.** And the “G: green foxtail, herbicidal effect grade” value (green foxtail [2]; [16])?
**A.** The value was 3 (Herbicidal rate of 40% or more and less than 70%).

**Q.** What about the “herbicidal effect, H: barnyard grass” value (barnyard grass [7]) of the same molecule?
**A.** Its value is 0 (Herbicidal rate of 5% or less (almost no effect)).

**Q.** And the “Herbicidal effect, B: Japanese bulrush” value (Japanese bulrush; [15])?
**A.** Its value is 2 (Herbicidal rate of 20% or more and less than 40%).

**Q.** And the “H: barnyard grass, herbicidal effect grade” value (barnyard grass [3]; [16])?
**A.** The value was 4 (Herbicidal rate of 70% or more and less than 90%).

**Q.** What about the “M: velvetleaf, herbicidal effect grade” value (velvetleaf [4]; [16]) of the same molecule?
**A.** The value was 4 (Herbicidal rate of 70% or more and less than 90%).

**Q.** What about the “O: lambsquarters, herbicidal effect grade” value (lambsquarters [5]; [16]) of the same molecule?
**A.** The value was 5 (Herbicidal rate of 90% or more (almost completely withered)).

**Q.** What about the “herbicidal effect, G: green foxtail” value (green foxtail [8]) of the same molecule?
**A.** The value was 0 (Herbicidal rate of 5% or less (almost no effect)).

**Q.** What about the “N: redroot pigweed, herbicidal effect grade” value (redroot pigweed [9]) of the same molecule?
**A.** Its value is 5 (Herbicidal rate of 90% or more (almost completely withered)).

**Q.** And the “Herbicidal effect, C: oval-leafed pondweed” value (oval-leafed pondweed; [15])?
**A.** The value was 2 (Herbicidal rate of 20% or more and less than 40%).

**Q.** What about the “Herbicidal effect, A: late watergrass” value (late watergrass; [15]) of the same molecule?
**A.** Its value is 3 (Herbicidal rate of 40% or more and less than 70%).

**Q.** What about the “herbicidal effect, N: redroot pigweed” value (redroot pigweed [10]) of the same molecule?
**A.** The value was 3 (Herbicidal rate of 40% or more and less than 70%).

**Q.** And the “herbicidal effect, F: southern crabgrass” value (southern crabgrass [11])?
**A.** The value was 0 (Herbicidal rate of 5% or less (almost no effect)).

**Q.** And the “herbicidal effect, O: lambsquarters” value (lambsquarters [12])?
**A.** Its value is 1 (Herbicidal rate of 5% or more and less than 20%).

**Q.** And the “F: southern crabgrass, herbicidal effect grade” value (southern crabgrass [6]; [16])?
**A.** The value was 3 (Herbicidal rate of 40% or more and less than 70%).

**Q.** And the “herbicidal effect, M: velvetleaf” value (velvetleaf [13])?
**A.** The value was 0 (Herbicidal rate of 5% or less (almost no effect)).
